This passage reports IC50 results from patent publication US8450308B2 (Vitae Pharmaceuticals, Inc., priority 2008, dated 2013).

The target of the assay is T1, truncated human beta-secretase (residues 1-458, His6-tagged at the C-terminus) (Homo sapiens, UniProt P56817).
T1 construct: truncated human beta-secretase (residues 1-458, His6-tagged at the C-terminus); His6 (C); made in house; host or cells: insect cells D. melanogaster S2 (baculovirus expression system (so in the source))
T1 sequence (P56817 22-458): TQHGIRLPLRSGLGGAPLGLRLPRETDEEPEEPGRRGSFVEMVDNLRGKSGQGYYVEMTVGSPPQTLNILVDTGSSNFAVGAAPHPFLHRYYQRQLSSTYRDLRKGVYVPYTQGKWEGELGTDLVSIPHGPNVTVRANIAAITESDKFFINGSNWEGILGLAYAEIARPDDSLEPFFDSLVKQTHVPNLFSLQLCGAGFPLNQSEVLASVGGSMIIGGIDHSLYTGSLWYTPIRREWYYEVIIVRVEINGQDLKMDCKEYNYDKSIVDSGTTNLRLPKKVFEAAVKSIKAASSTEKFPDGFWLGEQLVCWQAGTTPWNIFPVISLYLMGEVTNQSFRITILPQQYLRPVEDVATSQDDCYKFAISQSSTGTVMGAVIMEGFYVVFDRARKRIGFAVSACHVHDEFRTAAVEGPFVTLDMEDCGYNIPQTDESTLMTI
Kind of assay: BACE fluorescence quench assay. The class given is biochemical. The following applies: in vitro enzyme activity, BACE fluorescence assay, pH 4.5; read-out: IC50.
What is called IC50 is the concentration needed to halve the response being measured. Regarding `CN1O[C@]2(C[C@]3(CCCc4ccccc43)Oc3ccc(-c4cccc(C#N)c4)cc32)N=C1N` [Compound 374], the IC50 lay in the range of 1000 to 5000 nM.
For `CN1OC2(CC3(CCC(OCc4ccccc4)CC3)Oc3ccc(-c4cccc(C#N)c4)cc32)N=C1N` (stereo not drawn) [Compound 375], the IC50 lay within 1000 to 5000 nM.
To `CN1C(=O)[C@@]2(C[C@]3(CCCOC3)Oc3ccc(-c4cc(CO)ccc4F)cc32)N=C1N` [Compound 376] belongs 1000 to 5000 nM; to `CC(C)=CC(CCO)C1CC2(N=C(N)N(C)O2)c2cc(-c3cc(F)cc(C#N)c3)ccc2O1` (stereo not drawn) [Compound 377], 1000 to 5000 nM; to `CCOc1ccc(Cl)cc1-c1ccc2c(c1)[C@]1(C[C@@]3(CCCOC3)O2)N=C(N)N(C)C1=O` [Compound 378], 1000 to 5000 nM.
For the molecule `CN1C(=O)[C@@]2(C[C@]3(CCCOC3)Oc3ccc(-c4cc(C#N)ccc4C(F)(F)F)cc32)N=C1N` [Compound 380], the IC50 fell in the range of 1000 to 5000 nM.
The value for `CN1C(=O)C2(CC3(CCCc4ccccc4C3)Oc3ccc(Br)cc32)N=C1N` (stereo not drawn) [Compound 381] was 1000 to 5000 nM; that for `CC(C)=CC(CCO)C1CC2(N=C(N)N(C)O2)c2cc(-c3cccc(C#N)c3)ccc2O1` (stereo not drawn) [Compound 382] was 1000 to 5000 nM.
Consider `CN1OC2(CC3(CCC(Oc4ccccc4)CC3)Oc3ccc(-c4cccc(C#N)c4)cc32)N=C1N` (stereo not drawn) [Compound 383], for which the IC50 lay in the range of 1000 to 5000 nM.
Turning to `CN1OC2(C[C@H]([C@@H]3CCOC(C)(C)C3)Oc3ccc(-c4cc(F)ccc4F)cc32)N=C1N` (stereo partly drawn) [Compound 384], the IC50 fell in the range of 1000 to 5000 nM.
For the molecule `Cc1ccc(F)cc1-c1ccc2c(c1)[C@]1(C[C@@]3(CCCOC3)O2)N=C(N)N(C)C1=O` [Compound 385], the IC50 was in the range of 1000 to 5000 nM.
As for `CCOC(=O)c1cccc(-c2ccc3c(c2)[C@]2(C[C@]4(CCCOC4)O3)N=C(N)N(C)C2=O)c1` [Compound 386], the IC50 was in the range of 1000 to 5000 nM.
Consider `CC1CCC2(CO1)CC1(N=C(N)N(C)O1)c1cc(-c3cccc(C#N)c3)ccc1O2` (stereo not drawn) [Compound 387, 3-(2″H-3″-amino-2″-methyl-spiro(spiro(chroman-2,3′-[2,4,5,6-tetrahydro-6-methyl-pyran])-4,5″-[1,2,4]oxadiazole)-6-yl)benzonitrile], for which the IC50 was in the range of 1000 to 5000 nM.
On to `COC1CCC2(CC1)CC1(N=C(N)N(C)O1)c1cc(-c3cccc(C#N)c3)ccc1O2` (stereo not drawn) [Compound 388], for which the half-maximal inhibitory concentration (IC50) is 1000 to 5000 nM.
To `Cc1cccc(-c2ccc3c(c2)[C@]2(C[C@]4(CCCOC4)O3)N=C(N)N(C)C2=O)c1C` [Compound 389] belongs 1000 to 5000 nM.
The value for `CN1OC2(CC3(CCN(c4ccccc4)CC3)Oc3ccc(-c4cccc(C#N)c4)cc32)N=C1N` (stereo not drawn) [Compound 390] was 1000 to 5000 nM.
As to `CC(C)=CC(CCO)C1CC2(N=C(N)N(C)O2)c2cc(-c3cc(C#N)ccc3F)ccc2O1` (stereo not drawn) [Compound 391], the IC50 was in the range of 1000 to 5000 nM.
To `CC(C)=CC(CCO)[C@@H]1C[C@@]2(N=C(N)N(C)O2)c2cc(-c3cc(F)cc(F)c3F)ccc2O1` (stereo partly drawn) [Compound 392] belongs 1000 to 5000 nM.
In the case of `CN1OC2(CC(C3CCOC(C)(C)C3)Oc3ccc(-c4cccc(Cl)n4)cc32)N=C1N` (stereo not drawn) [Compound 393], the IC50 lay within 1000 to 5000 nM.
To `CN1OC2(C[C@]3(CCCC4CCCCC43)Oc3ccc(-c4cccc(C#N)c4)cc32)N=C1N` (stereo partly drawn) [Compound 394] belongs 1000 to 5000 nM; to `CN1C(=O)C2(CC3(CCCOC3)Oc3ccc(-c4cc(CO)ccc4F)cc32)N=C1N` (stereo not drawn) [Compound 395], 1000 to 5000 nM; to `CN1OC2(CC3(CCOC(C)(C)C3)Oc3ccc(-c4cccc(C#N)c4)cc32)N=C1N` (stereo not drawn) [Compound 396], 1000 to 5000 nM.
To `CN1C(=O)C2(CC3(CCCOC3)Oc3ccc(-c4ccsc4)cc32)N=C1N` (stereo not drawn) [Compound 397] belongs 1000 to 5000 nM; to `CN1O[C@@]2(C[C@@H]([C@H]3CCCOC3)Oc3ccc(-c4cc(F)cc(F)c4)cc32)N=C1N` [Compound 398], 1000 to 5000 nM.
Take `CN1OC2(N=C1N)c1ccccc1OCC2CCc1cccc(C#N)c1` (stereo not drawn) [Compound 399]: the IC50 was 1000 to 5000 nM.
The value for `CN1OC2(CC(C3CCOC(C)(C)C3)Oc3ccc(-c4cccc(-n5ccnc5)n4)cc32)N=C1N` (stereo not drawn) [Compound 400] was 1000 to 5000 nM; that for `CC(C)=CC(CC(C)(C)O)C1CC2(N=C(N)N(C)O2)c2cc(-c3cccc(C#N)c3)ccc2O1` (stereo not drawn) [Compound 401] was 1000 to 5000 nM.
As to `CC(C)=CC(CCO)C1CC2(N=C(N)N(C)O2)c2cc(-c3cc(F)cc(Cl)c3)ccc2O1` (stereo not drawn) [Compound 404], the IC50 fell in the range of 1000 to 5000 nM.
Take `CSc1cccc(-c2ccc3c(c2)[C@]2(C[C@@]4(CCCOC4)O3)N=C(N)N(C)C2=O)c1` [Compound 405]: the IC50 was 1000 to 5000 nM.
To `CN1OC2(CC(C3CCOC(C)(C)C3)Oc3ccc(-c4cccc(C#N)n4)cc32)N=C1N` (stereo not drawn) [Compound 406] belongs 1000 to 5000 nM; to `CN1OC2(CC3(CCCOC3)Oc3ccc(C#CC4CC4)cc32)N=C1N` (stereo not drawn) [Compound 407, 2″-methyl-6-(cyclopropylethynyl)-2″H-spiro[spiro[chroman-2,1′-(3-oxacyclohexane)]-4,5′-[1,2,4]oxadiazol]-3″-amine], 1000 to 5000 nM; to `CC(=O)N1CCC2(CC1)CC1(N=C(N)N(C)O1)c1cc(-c3cccc(C#N)c3)ccc1O2` (stereo not drawn) [Compound 409, 3-(spiro[spiro(chroman-2,4′-(1-acetylpiperidine))-4,5′-(3-amino-2-methyl-2H-[1,2,4]oxadiazole)]-6-yl)benzonitrile], 1000 to 5000 nM.
To `CN1C(=O)[C@@]2(C[C@]3(CCCOC3)Oc3ccc(-c4cccc(C#N)n4)cc32)N=C1N` [Compound 410] belongs 1000 to 5000 nM; to `CN1C(=O)[C@@]2(C[C@]3(CCCOC3)Oc3ccc(-c4ccco4)cc32)N=C1N` [Compound 411], 1000 to 5000 nM; to `CC(C)=CC(CCO)C1CC2(N=C(N)N(C)O2)c2cc(-c3cccc(Cl)c3)ccc2O1` (stereo not drawn) [Compound 412], 1000 to 5000 nM.
With `Cc1ccc(C#N)cc1-c1ccc2c(c1)[C@]1(C[C@@]3(CCCOC3)O2)N=C(N)N(C)C1=O` [Compound 413], the IC50 fell in the range of 1000 to 5000 nM.
Regarding `Cc1ccc(-c2ccc3c(c2)C2(CC4(CCCOC4)O3)N=C(N)N(C)C2=O)s1` (stereo not drawn) [Compound 414], the IC50 lay in the range of 1000 to 5000 nM.
With `CN1OC2(CC3(CCCC(c4ccccc4)C3)Oc3ccc(-c4cccc(C#N)c4)cc32)N=C1N` (stereo not drawn) [Compound 415], the IC50 fell in the range of 1000 to 5000 nM.
In the case of `CN1OC2(C[C@@]3(CCCC4CCCCC43)Oc3ccc(-c4cccc(C#N)c4)cc32)N=C1N` (stereo partly drawn) [Compound 416], the IC50 fell in the range of 1000 to 5000 nM.
On to `CN1C(=O)C2(CC(C3CCOC(C)(C)C3)Oc3ccc(-c4cc(F)cc(Cl)c4)cc32)N=C1N` (stereo not drawn) [Compound 417], for which the IC50 was in the range of 1000 to 5000 nM.
Consider `CC(C)=C[C@H](CCO)[C@@H]1C[C@@]2(N=C(N)N(C)O2)c2cc(-c3cc(F)cc(F)c3)ccc2O1` [Compound 419], for which the IC50 was 1000 to 5000 nM.
As to `CC(C)=CC(CCO)[C@H]1C[C@@]2(N=C(N)N(C)O2)c2cc(-c3cc(F)cc(F)c3F)ccc2O1` (stereo partly drawn) [Compound 420], the IC50 lay within 1000 to 5000 nM.
The value for `CC(C)=CC(CCO)[C@H]1C[C@@]2(N=C(N)N(C)O2)c2cc(-c3cc(F)cc(F)c3)ccc2O1` (stereo partly drawn) [Compound 421] was 1000 to 5000 nM; that for `CN1OC2(CC(C3COc4ccccc4C3)Oc3ccc(-c4cccc(C#N)c4)cc32)N=C1N` (stereo not drawn) [Compound 422] was 1000 to 5000 nM; that for `CC(C)=C[C@H](CCO)[C@@H]1C[C@@]2(N=C(N)N(C)O2)c2cc(-c3cccc(C(F)(F)F)c3)ccc2O1` [Compound 423] was 1000 to 5000 nM.
